Measured values taken from patent US20070077283A1, “METHOD OF ENHANCING TRANSMUCOSAL DELIVERY OF THERAPEUTIC COMPOUNDS” (Nastech Pharmaceutical Company Inc., priority 2005, published 2007).
Several values for one entry are separate records, joined by “and”; a condition that tells them apart may be missing. Equal entries are not always repeated.

Legend:
[1] = tested on: human-derived tracheal/bronchial epithelial cells (EpiAirway Tissue Model); assay: Insulin permeation across epithelial cell monolayer; type: cell-based; details: for permeation of insulin (in words): 1000 μM in the presence of Buffer I and Buffer II
Experimental: Also, the efficacy of a permeation enhancing lipid to enhance the permeation of insulin across and epithelial cell layer was measured. Refer to Example 2 of the instant application for general protocol details. […] Based on the FD3 permeation data in Table 8, the ability of the C16 PAF and C16 Enantiomeric PAF in the presence of Buffers I and II to enhance permeation of the biological agent insulin was assayed. Each lipid was tested at a 1000 μM concentration.

[2] = tested on: human-derived tracheal/bronchial epithelial cells (EpiAirway Tissue Model); assay: Transepithelial electrical resistance (TER) of an epithelial cell monolayer; type: cell-based; details: for activity at 1000 µM / activity at 500 µM: Homo sapiens, Epithelial cell, 1 h, read-out: Mean % of Original TER Value; for activity at 1000 µM: lower value = greater TER reduction (Table 4); for TER reduction within 15 minutes: 15 minute incubation; for activity at 500 µM: lipid 500 μM (Table 4)
Outline: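 EpiAirway human tracheal/bronchial epithelial tissue inserts, fed daily during recovery; resistance read with EVOM voltohmmeter in Endohm-12 chamber in MatTek medium, blank-insert background (about 5-20 ohms) measured. TER normalised to tissue surface area, expressed as Ohms*cm2 and percent of original TER; lower TER taken as enhanced permeation.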

[3] = tested on: human-derived tracheal/bronchial epithelial cells (EpiAirway Tissue Model); assay: Cell viability (MTT assay); type: cell-based; details: for effect on cell viability (MTT assay): compared with control Special Sauce, data not shown (Example 3); for MTT levels (cell viability): compared with PBS negative control (Example 5)
Experimental: (§1) Cell viability will be assessed using the MTT assay (MTT-100, MatTek kit). This kit measures the uptake and transformation of tetrazolium salt to formazan dye. Thawed and diluted MTT concentrate is prepared 1 hour prior to the end of the dosing period with the lipid by mixing 2 mL of MTT concentrate with 8 mL of MTT diluent. Each cell culture insert is washed twice with PBS containing Ca^+2 and Mg^+2 and then transferred to a new 96-well transport plate containing 100 μL of the mixed MTT solution per well. This 96-well transport plate is then incubated for three hours at 37° C. and 5% CO2. After the three hour incubation, the MTT solution is removed and the cultures are transferred to a second 96-well feeder tray containing 250 μL MTT extractant solution per well. An additional 150 μL of MTT extractan solution was added to the surface of each culture well and the samples sat at room temperature in the dark for a minimum of two hours and maximum of 24 hours. The insert membrane was then pierced with a pipet tip and the solutions in the upper and lower wells were allowed to mix. Two hundred microliters of the mixed extracted solution along with extracted blanks (negative control) was transferred to a 96-well plate for measurement with a microplate reader. The optical density (OD) of the samples was measured at 570 nm with the background subtraction at 650 nm on a plate reader. Cell viability was expressed as a percentage and calculated by dividing the OD readings for treated inserts by the OD readings for the PBS treated inserts and multiplying by 100. For the purposes of this assay, it was assumed that PBS had no effect on cell viability and therefore represented 100% cell viability.

[4] = Cell viability (MTT assay); type: cell-based, human; details: human; PN159 25 μM / PYY 13.67 mg/mL (High)
Experimental: as §1

[5] = tested on: human-derived tracheal/bronchial epithelial cells (EpiAirway Tissue Model); assay: Peptide YY (PYY) permeation across epithelial cell monolayer; type: cell-based
Experimental: Permeation is expressed as percent permeation and was calculated as follows: [formula] [formula] Terms
In the instant example, the ability of permeation enhancing lipids to enhance the permeation of the biological agent, peptide YY (PYY; molecular weight of 3.7 kDa) across the epithelial cell monolayer model system (EpiAirway™) was measured. Also, the efficacy of a permeation enhancing lipid to enhance the permeation of insulin across and epithelial cell layer was measured. Refer to Example 2 of the instant application for general protocol details.

[6] = lipid 1000 μM, percent decrease in TER from time zero
[7] = PN159 25 μM / PYY 13.67 mg/mL (High)
[8] = lipid 500 μM / PYY 13.67 mg/mL (High)

## CCCCCCCCCCCCCCCCOC[C@@H](COP(=O)([O-])OCC[N+](C)(C)C)OC(C)=O [C16 Enantiomeric PAF, 3-O-Hexadecyl-2-Acetoyl-sn-Glycero-1-Phosphocholine]
[1]
  permeation of insulin (in words): enhance the permeation of insulin across an epithelial cell monolayer
[1]; lipid 1000 μM in Buffer I
  % Insulin Permeation: 3%
[1]; lipid 1000 μM in Buffer II
  % Insulin Permeation: 8%
[2]; lipid 1000 μM
  activity at 1000 µM: 1%
  TER reduction within 15 minutes: levels equivalent to that of the Triton-X100™ control
[2]; lipid 1000 μM in Buffer I
  % Original TER: 2%
[2]; lipid 1000 μM in Buffer II
  % Original TER: 9%

## CCCCCCCCCCCCCCCCOC[C@H](COP(=O)([O-])OCC[N+](C)(C)C)OC(C)=O [C16-02:0 PC(C16 PAF), 1-O-Hexadecyl-2-Acetoyl-sn-Glycero-3-Phosphocholine]
[3]
  effect on cell viability (MTT assay): did not reduce cell viability below that of Special Sauce
[1]
  permeation of insulin (in words): enhance the permeation of insulin across an epithelial cell monolayer
[1]; lipid 1000 μM (Example 6)
  permeation of insulin: more than 3%
[1]; lipid 1000 μM in Buffer I
  % Insulin Permeation: 4%
[1]; lipid 1000 μM in Buffer II
  % Insulin Permeation: 8%
[1]; lipid 1000 μM in PBS
  % Insulin Permeation: 3%
[2]
  activity at 500 µM: 27%
[2]; lipid 1000 μM
  activity at 1000 µM: 2%
  TER reduction within 15 minutes: levels equivalent to that of the Triton-X100™ control
[2]; lipid 1000 μM in Buffer I
  % Original TER: 1%
[2]; lipid 1000 μM in Buffer II
  % Original TER: 8%

## CCCCCCCCCCCCCCCCCCOC[C@H](COP(=O)([O-])OCC[N+](C)(C)C)OC(C)=O [C18-02:0 PC(C18 PAF), 1-O-Octadecyl-2-Acetoyl-sn-Glycero-3-Phosphocholine]
[3]
  effect on cell viability (MTT assay): did not reduce cell viability below that of Special Sauce
[2]
  activity at 500 µM: 44%
[2]; lipid 1000 μM
  activity at 1000 µM: 1%
  TER reduction within 15 minutes: levels equivalent to that of the Triton-X100™ control
[2]; lipid 1000 μM in Buffer I
  % Original TER: 1%
[2]; lipid 1000 μM in Buffer II
  % Original TER: 7%

## C=CCC(=O)O[C@H](COCCCCCCCCCCCCCCCC)COP(=O)([O-])OCC[N+](C)(C)C [C16-04:1 PC]
[3]
  effect on cell viability (MTT assay): did not reduce cell viability below that of Special Sauce
[2]
  activity at 500 µM: 11%
[2]; lipid 1000 μM
  activity at 1000 µM: -2%
[2]; lipid 1000 μM in Buffer I
  % Original TER: 2%
[2]; lipid 1000 μM in Buffer II
  % Original TER: 23%

## CCCCCCCCCCCCCCCC(=O)OC[C@H](COP(=O)([O-])OCC[N+](C)(C)C)OC(=O)CCCC=O [POVPC, 1-Palmitoyl-2-(5′-oxo-Valeroyl)-sn-Glycero-3-Phosphocholine]
[3]
  MTT levels (cell viability): MTT levels comparable to that of the PBS negative control
  effect on cell viability (MTT assay): did not reduce cell viability below that of the control Special Sauce
[2]; 1000 μM, 60 minutes
  TER reduction by 60 minutes: levels nearly equivalent to that of the Triton-X100™ control
[2]; 1000 μM, within 15 minutes
  TER reduced to % below that of the PBS control: 20%
[2]; 1000 μM, within 30 minutes
  TER reduced to % of the PBS control: about 25%
[2]; lipid 1000 μM
  activity at 1000 µM: 0%
[2]; lipid 62.5 μM
  Mean TER Reduction 1 hr. Post-treatment: 23%
[2]; lipid 125 μM
  Mean TER Reduction 1 hr. Post-treatment: 32%
[2]; lipid 250 μM
  Mean TER Reduction 1 hr. Post-treatment: 52%
[2]; lipid 500 μM
  Mean TER Reduction 1 hr. Post-treatment: 87%
[2]; lipid 1000 μM in Buffer I
  % Original TER: 25%
[2]; lipid 1000 μM in Buffer II
  % Original TER: 17%
[2]; [6]
  Mean TER Reduction 1 hr. Post-treatment: 93%

## CC(C)C[C@H](NC(=O)[C@H](C)NC(=O)[C@H](CCCCN)NC(=O)[C@H](CC(C)C)NC(=O)[C@H](C)NC(=O)[C@H](CC(C)C)NC(=O)[C@H](CCCCN)NC(=O)[C@H](CC(C)C)NC(=O)[C@H](C)NC(=O)[C@H](CC(C)C)NC(=O)[C@@H](N)CCCCN)C(=O)N[C@@H](CCCCN)C(=O)N[C@@H](C)C(=O)N[C@@H](C)C(=O)N[C@@H](CC(C)C)C(=O)N[C@@H](CCCCN)C(=O)N[C@@H](CC(C)C)C(=O)N[C@@H](C)C(N)=O [PN159, reference compound]
[4]
  viability at 25 µM: 89%
[2]; [7]
  % Original TER: 10%
[2]; controls of the further test of lipids at 250 μM to 1000 μM (b219-b220)
  % of the original TER value: 8%
[2]; positive control PN159 25 μM
  Mean TER Reduction 1 hr. Post-treatment: 85% and 87%
[5]; [7]
  % PYY Permeation: 3.71%

## CCCCCCCCCCCCCCCC(=O)OC[C@H](COP(=O)([O-])OCC[N+](C)(C)C)OC(=O)CCCC(=O)O [PGPC, 1-Palmitoyl-2-Glutaroyl-sn-Glycero-3-Phosphocholine]
[3]
  MTT levels (cell viability): MTT levels comparable to that of the PBS negative control
[3]; [8]
  % Cell Viability: 113%
[2]; lipid 62.5 μM
  Mean TER Reduction 1 hr. Post-treatment: 21%
[2]; lipid 125 μM
  Mean TER Reduction 1 hr. Post-treatment: 28%
[2]; lipid 250 μM
  Mean TER Reduction 1 hr. Post-treatment: 48%
[2]; lipid 500 μM
  Mean TER Reduction 1 hr. Post-treatment: 80%
[2]; [6]
  Mean TER Reduction 1 hr. Post-treatment: 92%
[5]; [8]
  % PYY Permeation: 0.13%
